The values below come from patent US6579894B2, “Prolines as antimicrobial agents” (Merck & Co., Inc., priority 1999, dated 2003).

For one assay, the system named is E. faecium. Put plainly: Whole cell antimicrobial screen, MIC (E. faecium). Particulars: 2-fold dilutions, overnight incubation; for MIC: Enterococcus faecium, read-out: MIC (μg/mL) Efm. Type of assay: cell-based. The procedure: (§1) Compounds were tested for antimicrobial activity against a panel of organisms according to standard procedures described by the National Committee for Clinical Laboratory Standards (NCCLS document M7-A3, Vol. 13, No. 25, 1993/NCCLS document M27-P, Vol. 12, No. 25, 1992). Compounds were dissolved in 100% DMSO and were diluted to the final reaction concentration (0.1 μg/ml-500 μg/ml) in microbial growth media. In all cases the final concentration of DMSO incubated with cells is less than or equal to 1%. For minimum inhibitory concentration (MIC) calculations, 2-fold dilutions of compounds were added to wells of a microtiter plate containing 1×10^5 bacteria or fungal cells in a final volume of 200 lambda of an appropriate media (Mueller-Hinton Broth; Haemophilus Test Media; Mueller-Hinton Broth+5% Sheep Blood; or […]). Plates were incubated overnight at an appropriate temperature (30° C.-37° C.) and optical densities (measure of cell growth) were measured using a commercial plate reader. The MIC value is defined as the lowest compound concentration inhibiting growth of the test organism.

In a further assay the test system is E. faecalis. The experiment in a line: Whole cell antimicrobial screen, MIC (Efs). Type of assay: cell-based. The note with it: 2-fold dilutions, overnight incubation; for MIC: Enterococcus faecalis, read-out: MIC (μg/mL) Efs. The procedure: as §1
Assay [1] concerns aminoacyl-tRNA synthetases (aaRS). Put plainly: aaRS charging and trichloroacetic acid precipitation assay, IC50 (E. faecalis). The note with it: aaRS of E. faecalis; values are range classes. Type of assay: biochemical. The procedure:
(§2) IC50 determinations for the aminoacyl-tRNA synthetases (aaRS) isolated from pathogen or HeLa cells were carried out using a modification of the aaRS charging and trichloroacetic acid precipitation assay described previously (see examples: D. Kern et. al., Biochemie, 61, 1257-1272 (1979) and J. Gilbart et. al. Antimicrobial Agents and Chemotherapy, 37(1), 32-38 (1993)). The aaRS enzymes were prepared via standard cloning and expression methods and partially purified or partially purified from pathogen and HeLa cell extracts. The activity of each aaRS enzyme was standardized as trichloroacetic acid precipitable counts (cpm) obtained at 10 minutes reaction time at Km concentrations of substrates. For practical purposes, the minimal acceptable value is approximately 2000 cpm per 10 minute reaction.
(§3) Preincubations for IC50 determinations were initiated by incubating partially purified aaRS extracts in 50 mM HEPES (pH 7.5), 0.1 mM EDTA, 0.05 mg/ml bovine serum albumin, 10 mM dithiothreitol and 2.5% dimethyl sulfoxide with and without test compound (e.g. compound of the invention (preferably a compound of Formula I)) in a final volume of 20 microliters in a microtiter plate for 20 minutes at 25 C. Test compounds were typically present as serial dilutions in concentration ranges of 0.35 nM to 35 μM. Test compound solutions were prepared by dissolving test compound in 100% dimethyl sulfoxide and diluting to the final concentration with 50 mM HEPES, pH 7.5. IC50 determinations were typically performed in duplicate with each experiment containing 4-8 concentrations of inhibitor along with two no inhibitor controls.
(§4) IC50 incubations were initiated by supplementing the preincubation mixture to a final assay concentration of 10 mM MgCl2, 30 mM KCl, 10 mM KF, 50 mM HEPES (pH 7.5), 20 μM-500 mM ATP, 2-20 μM [^3H] amino acid, and 90-180 μM crude tRNA in a final volume of 35 microliters. The reaction was incubated at 25° C. for 5-20 minutes. At specified time points a 15 microliter aliquot was removed and added to a well of a Millipore filtration plate (Multiscreen-FB, MAFB NOB 10) containing 100 microliters of cold 5% (wt/vol) trichloroacetic acid. Trichloroacetic acid precipitable material was collected by filtration on Millipore Multiscreen filtration station, washed twice with cold 5% trichloroacetic acid, twice with water, and dried. Plates were typically allowed to air dry for several hours or they were baked at 50° C. in a vacuum oven for 30 minutes. The radioactivity on the dried plates was quantitated by the addition of Packard Microscint-20 to the wells and counting with a Packard TopCount scintillation counter.
(§5) Inhibitor activity was typically reported as a percentage of the control aaRS activity. The IC50 value was determined by plotting percent activity versus compound concentration in the assay and identifying the concentration at which 50% of the activity was remaining.

Assay [2] has the same test system. Put plainly: aaRS charging and trichloroacetic acid precipitation assay, IC50 (S. aureus). Type of assay: biochemical. The note with it: aaRS of S. aureus; values are range classes. As for the experimental part:
as §2, §3, §4, §5

The test system of the next assay is S. aureus. Put plainly: Whole cell antimicrobial screen, MIC (S. aureus). Type of assay: cell-based. The note with it: 2-fold dilutions, overnight incubation; for MIC: Staphylococcus aureus, read-out: MIC (μg/mL) Sa. The procedure: as §1

Values after ≈ are worked out from the molar mass of the structure shown.

For `O=C1C[C@@H](C(=O)NCc2nc3ccccc3[nH]2)N(Cc2ccc(Cl)cc2Cl)C1` [130,692], the MIC in the assay with E. faecium, in the assay with E. faecalis and in the assay on S. aureus was over 100 µg/mL in each case. The IC50 in assay [1] and in assay [2] was 1000 to 10000 nM throughout.

With `O=C(NCc1nc2ccccc2[nH]1)[C@@H]1C[C@@H](O)CN1Cc1ccc(Cl)cc1Cl` [130,901], the “MIC (μg/mL) Efm” value in the assay with E. faecium is under 100 µg/mL. For the same compound, the “MIC (μg/mL) Efs” value in the assay with E. faecalis was under 100 µg/mL. The values for the IC50 in assay [1] and in assay [2] were 501 to 1000 nM and under 500 nM, respectively. Also, the “MIC (μg/mL) Sa” value with S. aureus is under 100 µg/mL.

`O=C(NCc1nc2ccccc2[nH]1)[C@H]1CCCN1Cc1ccc(Cl)cc1Cl` [130,724]: in the assay on E. faecium, the “MIC (μg/mL) Efm” value was over 100 µg/mL. Moreover, in the assay on E. faecalis, the “MIC (μg/mL) Efs” value is over 100 µg/mL. Besides, the IC50 in assay [1] and in assay [2] was 1000 to 10000 nM in each case. For the same compound, the “MIC (μg/mL) Sa” value against S. aureus is under 100 µg/mL.

Consider `O=C(NCc1nc2ccccc2[nH]1)[C@@H]1CCCN1Cc1ccc(Cl)cc1Cl` [126,881], for which the MIC with E. faecalis is under 100 µg/mL; with S. aureus, 100 µg/mL (≈ 248 µM). Further, the IC50 in assay [1] was 1000 to 10000 nM; in assay [2], under 500 nM.

In the case of `O=C(NCc1nc2ccccc2[nH]1)C1CC(OCc2ccccc2)CN1Cc1ccc(Cl)cc1Cl` (stereo not shown) [127,889], the MIC in the assay on E. faecium, in the assay with E. faecalis and with S. aureus was over 100 µg/mL throughout. Moreover, the IC50 in assay [1] and in assay [2] was 1000 to 10000 nM throughout.

`O=C(NCc1nc2ccccc2[nH]1)[C@@H]1CCCCN1Cc1ccc(Cl)cc1Cl` [130,693]: the “MIC (μg/mL) Efm” value against E. faecium is 100 µg/mL (≈ 240 µM). Besides, in the assay with E. faecalis, the “MIC (μg/mL) Efs” value was over 100 µg/mL. In addition, the IC50 in assay [1] and in assay [2] was 1000 to 10000 nM in each case. Further, in the assay on S. aureus, the “MIC (μg/mL) Sa” value was under 100 µg/mL.

Turning to `O=C(O)CC1CC(C(=O)NCc2nc3ccccc3[nH]2)N(Cc2ccc(Cl)cc2Cl)C1` (stereo not shown) [130,973], the MIC in the assay with E. faecium, with E. faecalis and in the assay with S. aureus was over 100 µg/mL throughout. For the same compound, the IC50 in assay [1] and in assay [2] was under 500 nM throughout.

As to `O=C(NCc1nc2ccccc2[nH]1)[C@@H]1CC(O)CN1Cc1ccc(Cl)cc1Cl` (stereo partly shown) [127,006], the MIC in the assay on E. faecium, in the assay on E. faecalis and with S. aureus was under 100 µg/mL each time. For the same compound, the IC50 in assay [1] was 1000 to 10000 nM; in assay [2] it was under 500 nM.

Consider `O=C(NCc1nc2ccccc2[nH]1)C1CC(O)CN1Cc1ccc(Cl)cc1Cl` (stereo not shown) [130,725], for which the “MIC (μg/mL) Efm” value against E. faecium was over 100 µg/mL. In addition, the “MIC (μg/mL) Efs” value in the assay with E. faecalis is over 100 µg/mL. Further, the half-inhibitory concentration (IC50) in assay [1] and in assay [2] was 10000 to 60000 nM in each case. The “MIC (μg/mL) Sa” value against S. aureus was over 100 µg/mL.

On to `N#CC1CC(C(=O)NCc2nc3ccccc3[nH]2)N(Cc2ccc(Cl)cc2Cl)C1` (stereo not shown) [127,566], for which the MIC with E. faecium, in the assay on E. faecalis and in the assay on S. aureus was over 100 µg/mL each time. Also, the IC50 in assay [1] and in assay [2] was 1000 to 10000 nM in each case.

As for `O=C(NCc1nc2ccccc2[nH]1)C1CC(c2nn[nH]n2)CN1Cc1ccc(Cl)cc1Cl` (mixture of isomers) [130,706], the “MIC (μg/mL) Efm” value with E. faecium was over 100 µg/mL. Besides, the “MIC (μg/mL) Efs” value against E. faecalis was over 100 µg/mL. Moreover, the IC50 in assay [1] and in assay [2] was under 500 nM each time. Moreover, the “MIC (μg/mL) Sa” value against S. aureus was over 100 µg/mL.

As for `CON=C1CC(C(=O)NCc2nc3ccccc3[nH]2)N(Cc2ccc(Cl)cc2Cl)C1` (stereo not shown) [130,708], the MIC in the assay on E. faecium, with E. faecalis and in the assay on S. aureus was over 100 µg/mL each time. In addition, the IC50 in assay [1] and in assay [2] was 1000 to 10000 nM in each case.

Regarding `O=C(NCc1nc2ccccc2[nH]1)[C@@H]1C[C@H](O)CN1Cc1ccc(Cl)cc1Cl` [130,900], the “MIC (μg/mL) Efm” value in the assay with E. faecium was 100 µg/mL (≈ 238 µM). Moreover, the “MIC (μg/mL) Efs” value against E. faecalis was under 100 µg/mL. Moreover, the IC50 in assay [1] and in assay [2] was under 500 nM in each case. Besides, in the assay on S. aureus, the “MIC (μg/mL) Sa” value was determined as 100 µg/mL (≈ 238 µM).

`O=C(NCc1nc2ccccc2[nH]1)C1CC(=NO)CN1Cc1ccc(Cl)cc1Cl` (stereo not shown) [130,707]: the MIC with E. faecium, in the assay with E. faecalis and in the assay on S. aureus was over 100 µg/mL in each case. Further, the IC50 in assay [1] and in assay [2] was 1000 to 10000 nM each time.

Take `Clc1ccc(CN2CCC[C@H]2COCc2nc3ccccc3[nH]2)c(Cl)c1` [130,928]: the “MIC (μg/mL) Efm” value with E. faecium worked out at 100 µg/mL (≈ 256 µM). The “MIC (μg/mL) Efs” value against E. faecalis is over 100 µg/mL. Besides, the IC50 in assay [1] and in assay [2] was 1000 to 10000 nM each time. Further, the “MIC (μg/mL) Sa” value with S. aureus was 100 µg/mL (≈ 256 µM).

In the case of `O=C(O)CON=C1CC(C(=O)NCc2nc3ccccc3[nH]2)N(Cc2ccc(Cl)cc2Cl)C1` (stereo not shown) [130,709], the MIC in the assay on E. faecium, with E. faecalis and with S. aureus was over 100 µg/mL throughout. Further, the IC50 in assay [1] and in assay [2] was 1000 to 10000 nM each time.
